Results from patent US20250034161A1, “SPIROCYCLIC COMPOUND AS KRAS-G12C INHIBITOR” (Shanghai Euregen Biopharma Co., Ltd., priority 2020, published 2025).

Legend:
A549(G12S) = assay: Cell selectivity test, proliferation inhibition A549; format: cell-based; conditions: Homo sapiens, 72 hours
Excerpt: (§1) • 1. Test purpose: to detect the proliferation inhibition of the test compounds on NCI-H23, NCI-H2122, HCC827, Mia paca2, A549 and SW837 cell lines. • 2. […] No. FND500); Penicillin-streptomycin was purchased from Gibco (Art. No. 15140-122); 0.25% trypsin-ethylenediaminetetraacetic acid digestive juice (Trypsin-EDTA) was purchased from Gibco (Art. No. 25200-072); dimethyl sulfoxide (DMSO) was purchased from Sigma (Art. No. D2650); 96-well cell plate was purchased from Corning (Art. No. 3610); incubator was purchased from NuAire (model number: NU-5700E); Biosafety cabinet was purchased from AuAire (model number: NU-543-600S); Inverted microscope was purchased from Nikon (Art. No. TS-100); Automated cell counter was purchased from Life technologies (model number: Countess II); Microplate reader was purchased from PerkinElmer (model number: Envision); the data processing software was GraphPad Prism 5.0. […]

NCI-H23 (G12C) = assay: Cell selectivity test, proliferation inhibition NCI-H23; format: cell-based; conditions: Homo sapiens, 72 hours
Excerpt: as §1

Mia paca2(G12C) = assay: Cell selectivity test, proliferation inhibition Mia paca2; format: cell-based; conditions: Homo sapiens, MIA PaCa-2, 72 hours
Excerpt: as §1

HCC827(wt) = assay: Cell selectivity test, proliferation inhibition HCC827; format: cell-based; conditions: Homo sapiens, 72 hours
Excerpt: as §1

[1] = Pharmacokinetics study in mice (IV and PO); format: in vivo; conditions: ICR male mice
Description: Preparation of 0.5% methyl cellulose: 5 g of methyl cellulose were weighed and dissolved in 1000 mL of purified water.
Preparation of oral formulation: a required amount of the test compound was weighed and dissolved in 0.5% methyl cellulose solution to obtain a suspension or solution of 0.5 mg/mL.
Preparation of intravenous injection formulation: a required amount of test compound was weighed, and dissolved in 0.5 mL of dimethyl sulfoxide to prepare a solution of 4 mg/mL. 0.06 mL of the above solution was taken, and 0.12 mL of polyethylene glycol 15 hydroxystearate (solutol) and 1.02 mL of normal saline were added thereto to obtain a solution of 0.2 mg/mL.
Feeding 4 hours after administration.
Sample Collection: blood was collected via the jugular vein or other suitable vein, and 0.03 mL blood was collected at each time point. Samples were placed into tubes containing ethylenediaminetetraacetic acid dipotassium salt and kept on ice before centrifugation. Within 1 hour after blood collection, the blood samples were centrifuged at 2-8° C. and 6800 g for 6 minutes and stored at −80° C. The time points for blood collection were 0.083, 0.25, 0.5, 1, 2, 4, 8 and 24 hours after intravenous and oral administration.

NCI-H2122 (G12C) = assay: Cell selectivity test, proliferation inhibition NCI-H2122; format: cell-based; conditions: Homo sapiens, 72 hours
Excerpt: as §1

[2] = mouse, plasma, intravenous injection, 1 mg/kg
[3] = mouse, plasma, oral gavage, 5 mg/kg

C=CC(=O)N1CCN(c2nc(=O)n(-c3c(C)ccnc3C(C)C)c3nc(-c4c(O)cccc4F)c(F)cc23)[C@@H](C)C1 [AMG510]
IC50 (A549(G12S)): > 10000 nM
IC50 (NCI-H23 (G12C)): 7.55 nM
IC50 (Mia paca2(G12C)): 15.7 nM
IC50 (HCC827(wt)): > 10000 nM
F ([1]; oral gavage, 5 mg/kg): 0.33%
AUC(0-inf) [1, 2]: 227 ng·h/mL
Cmax [1, 2]: 623 ng/mL
clearance [1, 2]: 74.7 mL/min/kg
half-life [1, 2]: 13.2 min
Vd ([1]; mouse, plasma, intravenous injection, 1 mg/kg, read-out: Vz): 1.42 L/kg
AUC(0-inf) [1, 3]: 6.12 ng·h/mL
Cmax [1, 3]: 7.25 ng/mL
half-life [1, 3]: 21.6 min
IC50 (NCI-H2122 (G12C)): 27 nM
